From publication PMC7392018, “A general-purpose Nanohybrid fabricated by Polymeric Au(I)-peptide precursor to wake the function of Peptide Therapeutics” (Theranostics, 2020) come the findings set out here.

The nature of one data set: In vivo toxicity study. The note with it: 2.5 mg/kg every other day for 12 days, HCT116 xenograft mice; PMI-Au SNH intraperitoneally, intravenously or intragastrically. On the procedure: To evaluate the toxicity of PMI-Au SNH including the nephrotoxicity in vivo, we carried out a comprehensive toxicity study using the subcutaneous xenograft model of HCT116 tumors from efficacy studies. PMI-Au SNH was intraperitoneally, intravenously or intragastrically injected, every other day for a duration of 12 days, at a dose of 2.5 mg/kg, with saline, ^ctrlPMI-Au SNH and DOX as controls. […] The safety of both PMI-Au SNH and ^ctrlPMI-Au SNH and toxicity of DOX were further confirmed by changes, or lack thereof, in the function of the liver and kidney (Figure 9A-G), in the weight and H&E staining of spleen (Figure 9H-I) and in the number of white blood cells and thrombocytes (Figure S11). Moreover, heart function (Figure S12), the level of red blood cells (Figure S13) and the histological H&E staining of lung (Figure S14) supported the above findings and the conclusion that PMI-Au SNH is sufficiently safe with a significant therapeutic potential. […]
intense staining. […]
To assess potential toxicities of repeatedly infusing PMI-Au SNH, we monitored body weight of all mice over the course of treatment and measured hematological indexes as well as organ function indexes after 13- day treatment. […]

Another data set relates to chymotrypsin. Kind of data set: Proteolysis resistance to chymotrypsin by HPLC. Format: in vitro ADME. The note with it: chymotrypsin with 10% serum in PBS, PBS containing 10 mM oxidized glutathione, 0.5 mg/ml chymotrypsin, read-out: t1/2 of proteolysis (converted). On the procedure: Figure 3 The colloidal peptide-auric SNH is stable and proteolytically resistant. (A) The physicochemical properties of the three peptide and the schematic diagram of three peptide-Auric SNH. (B-D) The dimensional change of Pep-AuNPs and Pep-Au SNH with time in PBS (pH7.4) or PBS including 20% FBS and 50 µM GSH to simulate extracellular physiological environment. (E-G) Proteolysis resistance of Pep-SH, Pep-AuNPs and Pep-Au SNH under PBS containing 10 mM oxidized glutathione, 10% serum, and 0.5 mg/ml chymotrypsin.
Linear peptides are conformationally disordered in aqueous solutions under their own steam and, consequently, tendentious to proteolysis. Conjugation of peptides with nanoparticles would improve steric hindrance against peptidase, resulting in the resistance to proteolysis, [44]. We comparatively quantified the susceptibility of Pep-AuNPs and Pep-Au SNH to chymotrypsin using HPLC (Figure 3E-G).
Fi g u re S 9. (A) The dimensional change of PMI- Au SNH with time in PBS or PBS including 20%
FBS and 50μM GSH at pH 7.4 or 4.0 to simulate extracellular physiological environment. ( B)
Proteolysis resistance of Pep-Au SNH under PBS at pH 7.4 or 4.0 containing 10 mM oxidized
glutathione, 10% serum, and 0.5 mg/ml chymotrypsin. (C) ICP- MS quantification of gold content
(from PMI- Au SNH) in stomach, colon and blood collected from health c57/b6 mice. The data […]

With `COc1cccc2c1C(=O)c1c(O)c3c(c(O)c1C2=O)C[C@@](O)(C(=O)CO)C[C@@H]3O[C@H]1C[C@H](N)[C@H](O)[C@H](C)O1` [DOX, doxorubicin], the body weight change result in “In vivo toxicity study” is “significant loss of body weight”. For the molecule `CC(=O)N[C@H](C(=O)N[C@@H](CO)C(=O)N[C@@H](Cc1ccccc1)C(=O)N[C@@H](C)C(=O)N[C@@H](CCC(=O)O)C(=O)N[C@@H](Cc1ccc(O)cc1)C(=O)N[C@@H](Cc1c[nH]c2ccccc12)C(=O)N[C@@H](C)C(=O)N[C@@H](CC(C)C)C(=O)N[C@@H](CC(C)C)C(=O)N[C@@H](CO)C(=O)N1CCC[C@H]1C(=O)N[C@@H](CS)C(=O)O)[C@@H](C)O` [PMI-SH], in the data set with chymotrypsin, the half-life is 9 ± 0.6 min.
